# Assay results as given in patent publication US9006431B2, “Crystalline form of pemirolast” (Cardoz AB, priority 2009, dated 2015).
# Key:
# [1] = In vitro dissolution study (Ph. Eur. Apparatus 2, paddle); assay type: physicochemical; settings: 30 mg, 50 mM phosphate buffer pH 6.8, 50 rpm, 37° C.
# Experimental: An in vitro dissolution study was performed on pemirolast potassium (obtained Chemtronica AB, Stockholm, Sweden) and pemirolast sodium hemihydrate (prepared in accordance with the method described in Example 10 above) using standard Ph. Eur. Methodology (Apparatus 2 (paddle), Ph. Eur., 2.9.3, using 50 mM phosphate buffer pH 6.8 as a dissolution medium. A stirring rate of 50 rpm was employed. The temperature was 37° C.). Tests were performed in triplicate. 30 mg of each substance was added to separate vessels and the timer started. Sampling was at regular intervals using a 1 mL plastic syringe, depending on how quickly the substance appeared to dissolve (by visual inspection). The sample was filtered into HPLC vials using a small diameter filter. The samples were analysed by reversed phase HPLC. Quantification of pemirolast was performed by means of UV detection.
# [2] = Aqueous solubility (shake 24 hours, HPLC of filtrate); assay type: physicochemical; settings: doubly distilled water, 22° C.
# Experimental: About 40 mg of a sample (obtained by way of the procedure described in Example 2 above) was dispersed in 0.25 mL of doubly distilled water. The suspension was shaken at 22° C. for 24 hours. Afterwards, a fast solid/liquid-separation was performed using an Eppendorf Thermomixer Comfort (400 rpm). The suspensions were filtered with Millipore Centrifugal Filter Devices (PTFE filter; 0.2 μm) in a Centrifuge Hettich EBA 12 R (15,000 g, 1 minute, 22° C.). The concentration of the sample in the filtrate was analyzed by HPLC, and the solid phase was analyzed by FT-Raman spectroscopy.
# [3] = Dynamic Vapor Sorption (DVS) hygroscopicity classification; assay type: physicochemical; settings: for relative humidity above which significant water uptake starts: DVS; for hygroscopicity class by DVS analysis: mass change at 85% RH compared to the starting material
# Experimental: HPLC was performed on a TSP HPLC (UV3000, AS3000, P4000, SCM1000 Soft. Version 4.1); column: Waters, X Terra MS C18 4.6×100 mm, 5μ (CC01); mobile phase A: H2O+0.1% TFA; mobile phase B: acetonitrile+0.1% TFA; reference concentration: ca. 0.09 mg/mL; retention time: 6.6 minutes; gradient: 0.0 min: A:95%/B:5%; 20.0 min: A:5%/B:95%; 21.0 min: A:95%/B:5%; 30.0 min: A:95%/B:5%; flow: 1.0 mL/minute; injection volume: 10 μL; wavelength: 254 nm. Dynamic Vapor Sorption (DVS) measurements were carried out on a Sorption Measurement System SPS11-100n. The sample was placed in an aluminum crucible and the sample was allowed to equilibrate at a given RH before starting a pre-defined humidity program. (1) 2 h at 50% RH; (2) 50→0% RH (5%/h); (3) 5 h at 0% RH; (4) 0→95% RH (5%/h); (5) 5 h at 95% RH; (6) 95→50% RH (5%/h); (7) 2 h at 50% RH. Hygroscopicity was classified according to the European Pharmacopoeia (storage at 80% RH/25° C. for 24 hours). The mass change at 85% RH was used for classification, as compared to the starting material (at ambient conditions)—very hygroscopic: increase of mass ≧15%; hygroscopic: increase of mass is less than 15% and equal to or greater than 2%; slightly hygroscopic: increase of mass is less than 2% and equal to or greater than 0.2%; deliquescent: sufficient water is absorbed to form a liquid.
# [4] = humans; cited from earlier work
# [5] = cited from earlier work
# [6] = PXRD of 30 mg tablets after tabletting; assay type: physicochemical; settings: crushed and intact
# Experimental: For all tablets, friability and crushing resistance tests were conducted according to standard methodology (Ph. Eur. 6.0, 2.9.7 and 2.9.8, respectively, with the exception that the crushing resistance results are presented in kp rather than N according to the Ph. Eur.). PXRD was also performed on the 30 mg tablets after tabletting on both crushed and intact tablets. In view of the endotherms observed (and reported in Example 11 above) by DSC for the heptahydrate, it was expected that this may limit the ability of that polymorph to form tablets by compression (given that internal temperatures of 70° C. can easily be reached during the compression process). It was therefore decided to analyse the 30 mg tablets by PXRD as stated above.
# [7] = Stability study at different moisture levels and temperatures (appearance, Karl Fischer, PXRD); assay type: physicochemical
# Experimental: To determine the relative stability of pemirolast sodium obtained in accordance with the method described in Example 10 (hemihydrate), Example 11 (heptahydrate) and Example 5 (amorphous form) at different moisture levels, a stability study was performed.
# The study was performed under four different storage conditions with different moisture levels and temperatures, 40° C./75% RH, 25° C./60% RH, room temperature/10-20% RH, and room temperature/>90% RH. The substances were stored open in glass beakers and samples were withdrawn periodically for analysis (time zero, 1 week and 4 weeks).
# At the time intervals mentioned, the visual appearance was inspected by (a) placing a spatula of substance on a white background, munktell filter (no smearing or crushing of the substances was performed), and (b) by microscopy equipped with plane polarized light. The water content was also analysed using Karl Fischer titration. PXRD was conducted at time zero and at 4 weeks.
# plasma tryptase = experiment: Plasma tryptase levels in subjects with CRP above 0.9 mg/L; assay type: in vivo
# [8] = Storage under ambient conditions followed by FT-Raman; assay type: physicochemical; settings: about a month
# Experimental: FT-Raman spectra were recorded on a Bruker RFS 100 FT-Raman system with a near infrared Nd:YAG laser operating at 1064 nm and a liquid nitrogen-cooled germanium detector. 64 scans with a resolution of 2 cm^−1 were accumulated in the range from 3500 to 50 cm^−1. In general, 100 mW laser power was used.
# The Raman spectrum was recorded directly after recrystallisation. All samples were then stored under ambient conditions on a shelf in a fume hood. […] This is shown in FIG. 4, where the lower spectrum accords to the earlier measurement and the upper spectrum accords to the later measurement.
# [9] = listed as potassium salt of pemirolast
# [10] = listed as Example 2, Sodium Hemihydrate
# [11] = listed as Example 1, Sodium Hemihydrate
smiles,measurement,setting,value
"Cc1cccn2c(=O)c(-c3nnn[nH]3)cnc12 [pemirolast potassium, reference compound]",dissolution behaviour,[1]; listed as potassium salt,dissolved as soon as it was added to the dissolution medium
same,aqueous solubility,[2]; [9],192.38 mg/mL
same,pH of the saturated solution,[2]; [9],9.0
same,relative humidity above which significant water uptake starts,[3],above 70 % RH
same,hygroscopicity class by DVS analysis,[3],very hygroscopic (very hygroscopic: increase of mass ≧15%)
same,plasma concentration profile,[4],sharp plasma concentration peaks
same,hygroscopicity (reported),[5]; Pharmaceutical Interview Form,hygroscopic
same,aqueous solubility (reported),[5]; source: Pharmaceutical Interview Form,179 to 182 mg/mL
"Cc1cccn2c(=O)c(-c3nn[n-]n3)cnc12.O.O.O.O.O.O.O.[Na+] [pemirolast sodium heptahydrate, Pemirolast Sodium Heptahydrate]",phase transitions during tabletting (PXRD),[6],no phase transitions occurred
same,solid phase stability,"[7]; 60% RH, up to 4 weeks",stable
same,solid phase stability,[7]; 75% RH,converted partially to the new solid state form
same,solid phase stability,[7]; 90% RH,no signs of phase transitions were observed
same,solid phase stability,[7]; dry conditions (10-20% RH),converted to the hemihydrate form
"Cc1cccn2c(=O)c(-c3nnn[nH]3)cnc12 [pemirolast, 9-Methyl-3-(1H-tetrazol-5-yl)-4H-pyrido[1,2-a]pyrimidin-4-one]",effect on plasma tryptase levels,plasma tryptase,does not concomitantly reduce plasma tryptase levels
"Cc1cccn2c(=O)c(-c3nnn[n-]3)cnc12.[Na+] [amorphous form of pemirolast sodium, reference compound]",physical stability (Raman spectrum changed),[8],physically unstable
same,solid phase stability,[7]; 60% RH and above,crystallized
same,solid phase stability,[7]; dry conditions (10-20% RH),remains amorphous
"Cc1cccn2c(=O)c(-c3nnn[nH]3)cnc12 [pemirolast sodium hemihydrate, Pemirolast Sodium Hemihydrate]",dissolution behaviour,"[1]; listed as sodium hemihydrate salt, Sodium Hemihydrate",formed large aggregates and appeared to be more difficult to dissolve
same,aqueous solubility,[2]; [10],23.64 mg/mL
same,pH of the saturated solution,[2]; [10],8.0
same,relative humidity above which significant water uptake starts,[3]; [11],above 80 % RH
same,hygroscopicity class by DVS analysis,[3]; [11],hygroscopic (hygroscopic: increase of mass is less than 15% and equal to or greater than 2%)
same,phase transitions during tabletting (PXRD),[6],no phase transitions occurred
same,solid phase stability,[7]; 75% RH and above,converted to a previously unknown solid state form
same,solid phase stability,"[7]; relative humidity of 60% and less (down to 10-20% RH), up to 4 weeks",stable
same,"water content (Karl Fischer) on storage, unchanged","[7]; relative humidity of 60% and less, up to 4 weeks",2.8%
